Assay results as given in patent publication US9415047B2, “Use of benzo five-membered nitrogen heterocyclic piperazine or piperidine derivatives” (Liaoning Emmy Biological Pharmaceutical Co., Ltd., priority 2012, dated 2016).
“And” between values parts separate entries of the source, which are not always exact repeats. Equal entries are not always repeated. “Also recorded” adds a separate entry of the source. One block for each compound: values may come before it.

Assays:
Kunming mice [1] = test: Marrow micronucleus test on mice; type: in vivo; conditions: for micronuclei cells in 1000 polychromatic erythrocytes: dosed 4 days, test on day 5, II-2 120, II-85 74, cyclophosphane 60 mg/kg/day
Experimental: Ten Kunming mice (Experimental Animal Center, China Medical University), half male and half female, were used. Compound II-2 was administered via gastric gavage at 120 mg/kg/day, and II-85 was administered to 74 mg/kg/day. The drug was administered for 4 days continuously. Marrow micronucleus test was performed on day 5.
Mice in positive control group were administered cyclophosphane at 60 mg/kg/day. Mice in negative control group were administered normal saline at 0.1 ml/10 g/day. The drug was administered for 4 days continuously. Marrow micronucleus test was performed on day 5.
The mice were killed by snapping neck, and then femur and sternum were excised, with blood and muscles removed, epiphysis cut off. Then marrow from sternum was squeezed to clean glassslide with bovine serum by using a pair of hemostatic forceps, or marrow on femur was flushed directly with bovine serum onto clean glassslide. Then the substance on glassslide were mixed well and smeared. Then the prepared and dried marrow smears were put into staining tank with methanol, fixed for 15 min, picked out to dry in the open air. After marrow smears were dried, it would be stained in freshly prepared Giemsa solution (1 volume of Giemsa stock solution and 9 volumes of pH 6.8 phosphate buffer) for 10 min, staining solution was flushed away with little stream. Then the smear was dried in the open air and observed under a microscope.

[2] = tested on: AD constricted rabbit aorta; test: Relaxing effects on vascular smooth muscle constricted by adrenaline hydrochloride (AD) in vitro; conditions: relaxation of rabbit aorta constricted by adrenaline (10^−5 mol/L), mean±SEM, n=5; for EC50: Oryctolagus cuniculus
Summary of the method: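 Rabbit aortic strips in K-H solution precontracted with adrenaline hydrochloride (10^−5 mol/L) after a reproducible second contraction; compounds added cumulatively over ranges from 1×10^−10 up to 1×10^−2 mol/L depending on the compound series. Relaxation expressed as % of maximal relaxation versus −log concentration, mean±SEM, n=5.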

[3] = tested on: high kalium concentration constricted rabbit aorta; test: Relaxing effects on vascular smooth muscle constricted by high kalium concentration in vitro; conditions: relaxation of rabbit aorta constricted by high kalium solution (K+ 60 mmol/L), mean±SEM, n=5; for EC50: Oryctolagus cuniculus
Summary of the method: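 Rabbit aortic rings pre-challenged with adrenaline (10^−5 mol/L), washed and re-equilibrated 60 min in K-H solution, then constricted with high-K+ solution; compounds added cumulatively over 1×10^−10–1×10^−2 mol/L depending on series. Relaxation expressed as % of maximal relaxation vs −log concentration; mean±SEM, n=5.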

α1 receptor [4] = test: Antagonism of accumulative constriction of rabbit aorta by noradrenaline (α-receptor agonist)
Experimental: Then samples were flushed with K-H solution repeatedly, K-H solution was changed for every 20 min, and the samples were balanced for 60 min. After baseline recovered to be stable, doxazosin (10^−7 mol/L) was added, and noradrenaline (NA) (10^−8-6×10^−5 mol/L) was added by using the same method 15 min later.
NA was also added by using the same method 15 min later.

Calcium Channel (Ca^2+) = test: Antagonism of accumulative constriction of rabbit aorta by CaCl2; conditions: calcium free high kalium depolarization
Experimental: (§4) Rabbits were hit to be dizzy, with thoracic cavity quickly cut open, descending aorta exposed, connective tissues and surrounding fatty tissues (for hydroxytryptamine receptor antagonism test, endothelia should be removed with smooth stainless steel rod) removed, the aorta was cut into 3-5 mm vascular rings which were penetrated together with a steel wire with one end fixed on ventilation hook, another end on pressure tonotransducer. The aorta rings were put into a bath tube with 20 ml of nutritional solution, and the tension changes were recorded by using the recorder. The temperature of bath tube was maintained at 37±0.5° C., and mixed gas (95% O2+5% CO2) was ventilated at a rate of I-2 bubbles/second. The initial load of the sample was 1.5 g, nutritional solution was changed for every 20 min. The sample was balanced for 2 hours, and the experiment would be started when baseline became stable.
After sample tension became stable, calcium K-H solution was used to flush the sample for 3 times, and incubated with calcium free K-H solution for 40 min. Calcium free high kalium solution was added into the sample for depolarization for 20 min, then CaCl2 (10^−6-10^−2 mol/L) was added into bath tube till maximal response was achieved, and then waveform was recorded. Then K-H solution was used to flush the sample repeatedly, the K-H solution was changed for every 20 min, and the sample was balanced for 60 min. […]
After sample tension became stable, calcium K-H solution was used to flush the sample for 3 times, and incubated with calcium free K-H solution for 40 min. Calcium free high kalium solution was added into the sample for depolarization for 20 min, then CaCl2 (10^−6-10^−2 mol/L) was added into bath tube till maximal response was achieved, and then waveform was recorded. […] Calcium free high kalium solution was added into the sample for depolarization for 20 min, then amlodipine (10^−7 mol/L) was added into bath tube, which was incubated for 15 min, then CaCl2 (10^−6-10^−2 mol/L) was added by using the same method till maximal response was achieved, and then waveform was recorded. […]

[5] = Experiment on acute toxicity; conditions: both sexes, Kunming, mouse, in vivo, po; mice, gastric gavage
Excerpt: (§1) Kunming mice (Experimental Animal Center, China Medical University) were used, half male and half female, 18-22 g, brief probability unit method was used to test the acute toxicity of the compound.
(§2) Ten Kunming mice (Experimental Animal Center, China Medical University) were used, half male and half female, 18-22 g, brief probability unit method was used to test the acute toxicity of the compound.

Kunming mice [6] = test: Experiment on acute toxicity; conditions: mouse, in vivo
Excerpt: as §1, §2

SD rats = test: Effects on blood pressure of SD rats anesthetized with urethane; type: in vivo; conditions: for diastolic blood pressure (DBP) / mean artery pressure (MAP) / systolic blood pressure (SBP): 4.0 mg/kg gastric gavage, n = 4
Experimental: (§3) Four SD rats were anesthetized with urethane ([…]), after vital signs became stable, blood pressure was measured by common carotid intubation. After blood pressure became stable, compound II-2 was administered at 4.0 mg/kg via gastric gavage, blood pressure changes with time were observed and recorded.
as §3, with “Five” for “Four”, “rats (provided by Experimental Animal Center, China Medical University)” for “rats”, “II-85” for “II-2”, “1.5” for “4.0”

5-HT2A receptor = 5-HT2A receptor (Oryctolagus cuniculus, UniProt G1SYA7); test: Antagonism of accumulative constriction of rabbit aorta by 5-HT
Chain of 5-HT2A receptor (G1SYA7 1-469): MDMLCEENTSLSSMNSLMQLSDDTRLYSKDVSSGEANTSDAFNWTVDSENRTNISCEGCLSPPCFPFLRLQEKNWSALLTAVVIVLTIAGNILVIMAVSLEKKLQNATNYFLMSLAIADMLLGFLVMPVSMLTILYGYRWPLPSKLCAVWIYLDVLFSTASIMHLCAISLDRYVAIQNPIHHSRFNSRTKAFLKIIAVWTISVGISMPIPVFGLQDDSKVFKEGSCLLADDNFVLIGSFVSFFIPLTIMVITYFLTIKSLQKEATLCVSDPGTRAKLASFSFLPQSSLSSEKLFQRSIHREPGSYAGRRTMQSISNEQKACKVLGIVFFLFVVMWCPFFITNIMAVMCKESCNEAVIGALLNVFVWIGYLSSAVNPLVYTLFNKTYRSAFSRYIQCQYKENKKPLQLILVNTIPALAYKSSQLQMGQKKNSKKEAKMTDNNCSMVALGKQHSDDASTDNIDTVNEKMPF
Experimental: as §4
After sample tension became stable, a piece of waveform was recorded, 5-HT (10^−7-3×10^−4 mol/L) was added into the bath tube until maximal response, then waveform was recorded. […] 5-HT was also added by using the same method 20 min later. The maximal response was considered 100%, 5-HT constriction percentage was used as Y axis, negative logarithms of different concentrations of 5-HT were used as X axis to draw dose effective curve.
After sample tension became stable, a piece of waveform was recorded, 5-HT (10^−8-10^−3 mol/L) was added into the bath tube until maximal response, then waveform was recorded. […] 5-HT was also added by using the same method 20 min later. The maximal response was considered 100%, 5-HT constriction percentage was used as Y axis, negative logarithms of different concentrations of 5-HT were used as X axis to draw dose effective curve (data were expressed in mean±SEM ( ? ), *P<0.05, **P<0.01, n=7).
After sample tension became stable, a piece of waveform was recorded, 5-HT (10^−8-3×10^−4 mol/L) was added into the bath tube until maximal response, then waveform was recorded. […] 5-HT was also added by using the same method 20 min later. […]

α1 receptor [7] = test: Antagonism of accumulative constriction of rabbit aorta by phenylephrine (α-receptor agonist); conditions: agonist (R)-phenylephrine
Experimental: PE was also added by using the same method 15 min later. […] The curve was shown in FIG. 21 after positive drug doxazosine mesylate (10^−7 mol/L) was added.

[8] = tested on: NA constricted rabbit aorta; test: Relaxing effects on vascular smooth muscle constricted by noradrenaline (NA) in vitro; conditions: relaxation of rabbit aorta constricted by noradrenaline (10^−5 mol/L), mean±SEM, n=5; for EC50: Oryctolagus cuniculus
Experimental: Adrenaline hydrochloride (AD) (10^−5 mol/L) was added into a bath tube to induce constriction, when maximal constriction was achieved, the sample was completely flushed, K-H solution was changed for every 20 min. Contents in the tube was balanced for 60 min, when baseline recovered to be stable, noradrenaline bitartrate (NA) (10^−5 mol/L) was added to induce constriction. When the later maximal constriction response was basically consistent with the former one, the prepared compound solutions were subsequently added, including compound II-84 to II-123 solutions (1×10^−10-1×10^−2 mol/L), compound II-124 to II-157 solutions (1×10^−10-1×10^−3 mol/L), to record the waveforms. Relaxing percentage of the compound was used as Y axis, maximal relaxation response was 100%, negative logarithm of different concentration was used as X axis, to draw dose effect curve (expressed in mean±SEM ( ? ), n=5).

SMILES: O=P1(N(CCCl)CCCl)NCCCO1 (stereo not drawn) [cyclophosphane, reference compound]
micronuclei cells in 1000 polychromatic erythrocytes (Kunming mice [1]): 12%

SMILES: FC(F)(F)c1cccc(N2CCN(CCCCn3cnc4ccccc43)CC2)c1 [II-2, 1-(4-(4-(3-trifluoromethylphenyl)piperazine-1-yl)butyl)-1H-benzimidazole]
EC50 [2]: 1860 nM
EC50 [3]: 4570 nM
PA2 value to resist constriction of rabbit aorta by NA (α1 receptor [4]): 7.37±0.08
PA2 value to resist constriction of rabbit aorta by CaCl2 (Calcium Channel (Ca^2+)): 5.61±0.04
LD50 [5]: 362 mg/kg
therapeutic index (Kunming mice [6]): great therapeutic index
toxicity (Kunming mice [6]): mild toxicity
marrow micronucleus test result (Kunming mice [1]): negative
micronuclei cells in 1000 polychromatic erythrocytes (Kunming mice [1]): 2.0±0.333%
diastolic blood pressure (DBP) (SD rats; 0 min post dosing): 75.92 mmHg
mean artery pressure (MAP) (SD rats; 0 min post dosing): 91.50 mmHg
systolic blood pressure (SBP) (SD rats; 0 min post dosing): 122.66 mmHg
diastolic blood pressure (DBP) (SD rats; 15 min post dosing): 62.21 mmHg
mean artery pressure (MAP) (SD rats; 15 min post dosing): 73.40 mmHg
systolic blood pressure (SBP) (SD rats; 15 min post dosing): 95.77 mmHg
diastolic blood pressure (DBP) (SD rats; 30 min post dosing): 61.84 mmHg
mean artery pressure (MAP) (SD rats; 30 min post dosing): 74.52 mmHg
systolic blood pressure (SBP) (SD rats; 30 min post dosing): 99.88 mmHg
diastolic blood pressure (DBP) (SD rats; 60 min post dosing): 58.04 mmHg
mean artery pressure (MAP) (SD rats; 60 min post dosing): 72.77 mmHg
systolic blood pressure (SBP) (SD rats; 60 min post dosing): 102.22 mmHg
diastolic blood pressure (DBP) (SD rats; 90 min post dosing): 53.86 mmHg
mean artery pressure (MAP) (SD rats; 90 min post dosing): 68.81 mmHg
systolic blood pressure (SBP) (SD rats; 90 min post dosing): 98.71 mmHg
diastolic blood pressure (DBP) (SD rats; 120 min post dosing): 69.10 mmHg
mean artery pressure (MAP) (SD rats; 120 min post dosing): 83.12 mmHg
systolic blood pressure (SBP) (SD rats; 120 min post dosing): 111.16 mmHg
diastolic blood pressure (DBP) (SD rats; 150 min post dosing): 70.79 mmHg
mean artery pressure (MAP) (SD rats; 150 min post dosing): 84.47 mmHg
systolic blood pressure (SBP) (SD rats; 150 min post dosing): 111.82 mmHg
diastolic blood pressure (DBP) (SD rats; 180 min post dosing): 71.08 mmHg
mean artery pressure (MAP) (SD rats; 180 min post dosing): 84.83 mmHg
systolic blood pressure (SBP) (SD rats; 180 min post dosing): 112.34 mmHg
diastolic blood pressure (DBP) (SD rats; 210 min post dosing): 75.26 mmHg
mean artery pressure (MAP) (SD rats; 210 min post dosing): 88.54 mmHg
systolic blood pressure (SBP) (SD rats; 210 min post dosing): 115.12 mmHg
time until blood pressures recovered to those before drug dosing (SD rats; anesthetized SD rats, gastric gavage): 3.5 h
oral absorption (SD rats; in vivo bulk testing on rats): good oral absorption
hypotensive effects (SD rats; rats, gastric gavage): good hypotensive effects; also recorded: obvious hypotensive effects
Kb (5-HT2A receptor): 1950 nM

SMILES: FC(F)(F)c1cccc(N2CCN(CCCCn3nnc4ccccc43)CC2)c1 [II-31, 1-(4-(4-(3-trifluoromethylphenyl)piperazine-1-yl)butyl)-1H-benzotriazole]
EC50 [2]: 646 nM
EC50 [3]: 2820 nM
PA2 value to resist constriction of rabbit aorta by NA (α1 receptor [4]): 6.02±0.13
PA2 value to resist constriction of rabbit aorta by CaCl2 (Calcium Channel (Ca^2+)): 6.56±0.032
Kb (5-HT2A receptor): 188 nM

SMILES: COc1cc2nc(N3CCN(C(=O)C4COc5ccccc5O4)CC3)nc(N)c2cc1OC (stereo not drawn) [doxazosin, reference compound]
PA2 value to resist constriction of rabbit aorta by NA (α1 receptor [4]): 7.52±0.04 and 7.76±0.24
PA2 value to resist constriction of rabbit aorta by PE (α1 receptor [7]): 7.43±0.12

EC50 [2]: 55000 nM
EC50 [8]: 91200 nM
EC50 [3]: 550000 nM
SMILES: Fc1ccc2c(C3CCN(CCOn4nnc5ccccc54)CC3)noc2c1 [II-99, N-(2-(1-benzotriazolyl)ethoxyl)-4-(3-(6-fluorobenzisoxazolyl))piperidine]

EC50 [8]: 479 nM
SMILES: FC(F)(F)c1cccc(C2CCN(CCCCn3cnc4ccccc43)CC2)c1 [II-109, N-(4-(1H-benzimidazoyl-1-yl)butyl)-4-(3-trifluoromethylphenyl)piperidine]
−logEC50 [2]: 6.21 ± 0.04
−logEC50 [3]: 5.01 ± 0.04

SMILES: Fc1ccc2c(C3CCN(CCCn4nnc5ccc(F)cc54)CC3)noc2c1 [II-88, N-(3-(6-fluoro-1H-benzotriazole-1-yl)propyl)-4-(3-(6-fluorobenzisoxazolyl))piperidine]
−logEC50 [2]: 5.61 ± 0.05
−logEC50 [8]: 5.73 ± 0.05
−logEC50 [3]: 4.72 ± 0.05

EC50 [8]: 8130 nM
SMILES: COc1ccc2c(C3CCN(CCCCn4nnc5ccc(C#N)cc54)CC3)noc2c1 [II-97, N-(4-(6-cyanobenzotriazolyl)butyl)-4-(3-(6-methoxylbenzisoxazolyl))piperidine]
−logEC50 [2]: 5.23 ± 0.06
−logEC50 [3]: 3.23 ± 0.04
